Earlier results in patent US12441685B2, “Compounds and methods for treating cancer” (DANA-FARBER CANCER INSTITUTE, INC., priority 2015, dated 2025).

Conditions: Phase II study, patients with NBCCS (Tang et al., 2012)

CS(=O)(=O)c1ccc(C(=O)Nc2ccc(Cl)c(-c3ccccn3)c2)c(Cl)c1 [vismodegib]
participants who ceased treatment due to serious adverse effects: 14 of 26
